Laboratory results from patent US10100011B2, “Pentadienoyl piperidine derivative and use thereof” (Industry-Academic Cooperation Foundation, Yonsei University, priority 2014, dated 2018).

Tested on: genes related to adipose tissue generation and thermogenesis in visceral fat tissue
Assay: Gene (RT-PCR) and protein (Western blotting) expression in visceral (epididymal) fat tissue of mice
Assay type: in vivo, mouse
Conditions: compound in high-fat diet
Procedure: 1 ml of a TRIzol solution per 0.1 g of epididymal fat tissue was added to the pulverized tissue, followed by centrifuging at 4° C. and 12,000×g for 10 minutes. A supernatant was transferred into a new tube and then 200 μl of chloroform was added thereto, followed by vortexing. This process was repeated twice and then a supernatant was transferred into a new tube. Subsequently, isopropanol and the supernatant were mixed in a ratio of 1:1 and strongly shook ten times, followed by standing at room temperature for 10 minutes. Subsequently, centrifugation was carried out at 12,000×g and 4° C. for 10 minutes, followed by removing a supernatant and adding 1 ml of 70% ethanol to the remaining precipitate. Subsequently, centrifugation was carried out at 7,500×g and 4° C. for five minutes. Ethanol was removed and then the tube containing an RNA precipitate was dried at room temperature for five minutes. The dried RNA pellet was dissolved in nuclease free water. The concentrations of the extracted RNA samples were measured at wavelengths of 260 nm and 280 nm by means of a UV/VIS spectrophotometer (Beckman Coulter, DU730). In addition, the extracted RNA samples were electrophoresed on an agarose gel to confirm the quality of the RNA samples.
The RNA samples extracted from epididymal fat tissue were subjected to reverse transcription using oligo dT primers and the Superscript reverse transcription enzyme (GIBCO BRL, Gaithersburg, Md., USA), thereby synthesizing cDNAs. Each of the synthesized cDNAs was used as a template and 5′ and 3′ flanking sequences of cDNA of each of genes to be amplified were used as primers, thereby performing PCR. 1 μl of each of amplified PCR products was electrophoresed on a 1% agarose gel and a DNA band was observed.
A predetermined amount of visceral fat or liver tissue was homogenized with liquid nitrogen and a lysis buffer in a mortar and then centrifuged at 13,000 rpm and 4° C. for 20 minutes. Subsequently, a middle layer was collected and subjected to protein quantification according to the Bradford method. 50 μg of a protein was electrophoresed on an SDS polyacryamide gel and then electro-blotted on hyperfilm PVDF. A reaction was carried out using a corresponding antibody and detection was performed using ECL.

[1] = RT-PCR, levels similar to Chow group

CSc1ccc(/C=C/C=C/C(=O)N2CCCCC2)cc1 [LJ-2501, (2E,4E)-5-(4-(methylthio)phenyl)-1-(piperine-1-yl)penta-2,4-diene-1-one]
expression levels of NRF-1, COX2 and TFAM in visceral fat tissue (RT-PCR): increasing | gene expression levels of PGC-1α, SIRT1 and UCP1 in visceral adipose tissue compared to HFD [1]: increased | mRNA expression of C/EBPα, PPARγ2 and target genes (CD36, FAS, leptin) in epididymal fat tissue compared to HFD [1]: reduced | phosphorylation level of CREB proteins in visceral adipose tissue (Western blotting): increased
